The nature of data set [1]: Steady-state plasma pharmacokinetics. The data set is classed as in vivo, human.
For data set [2] the following is noted: single-agent enzastaurin 525 mg orally daily; cited from earlier work.
The test system of the next data set is metastatic NSCLC. The following applies: single agent, second- or third-line; cited from earlier work.
The subject of another data set is NSCLC. As to conditions: cited from earlier work.
A further data set relates to advanced NSCLC. As to conditions: advanced NSCLC progressed after first-line chemotherapy; cited from earlier work.
Where [3] appears, read: 150 mg erlotinib daily with 250 mg enzastaurin, geometric mean (CV%), n 3.
Where [4] appears, read: 150 mg erlotinib daily with 500 mg enzastaurin, geometric mean (CV%), n 11.

Values joined by “and” are separate entries in the source; they are usually repeats but may differ in a detail not shown here. Equal entries are not always repeated. Where two headings read alike, the source gives them in different places.

Take `Cn1cc(C2=C(c3cn(C4CCN(Cc5ccccn5)CC4)c4ccccc34)C(=O)NC2=O)c2ccccc21` [Enzastaurin]: the “C av,ss” value in data set [1] (enzastaurin 500 mg once daily with erlotinib 150 mg daily, geometric mean (CV%), N 12) is given as 750 (71) nmol/L. For the same molecule, the Tmax in data set [1] (human, plasma, oral) was determined as 4.04 h. In data set [1] (human, plasma, oral, AUCτ,ss, enzastaurin 500 mg once daily with erlotinib 150 mg daily, geometric mean (CV%), N 12), the AUC is 18 µM·h. For the same molecule, the Cmax in data set [1] (human, plasma, oral, C max,ss, enzastaurin 500 mg once daily with erlotinib 150 mg daily, geometric mean (CV%), N 12) stood at 1600 nM. In data set [2], the “AUCτ,ss” value is on record as 23,600 nmol × h/L and the CLss/F is given as 40.3 L/h. The “patients with prolonged stabilization >6 months” value in the data set with metastatic NSCLC was 11%.

Turning to `C#Cc1cccc(Nc2ncnc3cc(OCCOC)c(OCCOC)cc23)c1` [erlotinib], the “C av,ss” value in data set [1] (setting [3]) is reported as 1,030 (19) ng/mL; in data set [1] (setting [4]), 1,090 (45) ng/mL. Further, the CLss/F in data set [1] (setting [3]) was 6.07 L/h and 6.07 (19) L/h; in data set [1] (setting [4]), 5.75 L/h and 5.75 (45) L/h. The “hazard ratio (overall survival vs placebo)” value in the data set on NSCLC (P < 0.001) is reported as 0.70. In the data set on NSCLC (unselected population, vs placebo <1%, P < 0.001), the response rate was 8.9%. Further, the overall survival with NSCLC (vs placebo 4.7 months) was 6.7 months. Moreover, the overall response rate with advanced NSCLC was 6.2%.

By Tmax is commonly meant the time from dosing to the highest level. By AUC is commonly meant concentration integrated over time. A higher AUC goes with high exposure. In general, Cmax refers to the highest concentration seen after dosing.

The record behind these values is paper PMC3313020 (Cancer Chemotherapy and Pharmacology, 2011).
